Earlier results in US20240397950A1, “DISINFECTANT COMPOSITION” (OTSUKA PHARMACEUTICAL FACTORY, INC., priority 2018, published 2024).

pH at which a dilute aqueous solution causes precipitation: ≥ 8
SMILES: N=C(NCCCCCCNC(=N)NC(=N)Nc1ccc(Cl)cc1)NC(=N)Nc1ccc(Cl)cc1.O=C(O)[C@H](O)[C@@H](O)[C@H](O)[C@H](O)CO.O=C(O)[C@H](O)[C@@H](O)[C@H](O)[C@H](O)CO [Chlorhexidine gluconate]
